Measurements reported in publication PMC4658348 (ACS chemical biology, 2015).

What was measured:
Assay type in all cases: biochemical
[1] = biological target: human HSP90α (Homo sapiens, UniProt P07900); assay: ATP/NADH-coupled ATPase assay
[2] = biological target: T1, vacuolar-type ATPase (V-ATPase) (Saccharomyces cerevisiae, UniProt P25515+P32563); assay: enzyme-coupled ATPase assay
[3] = biological target: T1, vacuolar-type ATPase (V-ATPase); assay: enzyme-coupled ATPase assay; remark: listed apart in the source

Structure (SMILES)	IC50 [1] [µM]	IC50 [2] [µM]	enzyme-coupled ATPase assay (NADH loss) with purified V-ATPase [3]
CC[C@@H](O)[C@H](C)/C=C/C(=O)[C@@H](C)[C@H](O)[C@H](C)[C@H]1OC(=O)/C(C)=C/C(C)=C/[C@@H](C)[C@@H](O)[C@@H](C)C/C(C)=C/C=C/[C@@H]1OC [oxohygrolidin]	~50	~0.25	
CO/C1=C\C(C)=C\[C@@H](C)[C@@H](O)[C@@H](C)C/C(C)=C/C=C/[C@H](OC)[C@@H]([C@@H](C)[C@@H](O)[C@H](C)[C@@]2(O)C[C@@H](O)[C@H](C)[C@@H](C(C)C)O2)OC1=O [bafilomycin A1]			Oxohygrolidin (black bar) inhibited V-ATPase comparable to the plecomacrolides, bafilomycin A1(dotted bar), and concanamycin A (hatched bar)
